The text below walks through data of publication PMC4526861, “Inhibition of protein kinase C by isojacareubin suppresses hepatocellular carcinoma metastasis and induces apoptosis in vitro and in vivo” (Scientific Reports, 2015).

As a reminder, the IC50 is the concentration at which inhibition is half-maximal.

The test system of one data set is HepG2 xenografts. Put plainly: Antitumor activity in vivo, HepG2 xenograft. The arrangement: species or system BALB/c-nu nude mice. The settings on record: 5 mg/kg, tail vein injection every other day for two weeks. On the procedure:
Four-week-old male BALB/c-nu nude mice (15–20 g) were obtained from the Shanghai SLAC Laboratory Animal Co., Ltd. (Shanghai, China). The animals were maintained under specific pathogen-free conditions with food and water supplied ad libitum in the Laboratory Animal Center of the Second Military Medical University. All animal experiments were carried out in accordance with the Guide for the Care and Use of Laboratory Animals of the National Institutes of Health and were approved by the Committee on the Ethics of Animal Experiments of the Second Military Medical University, China.
(§1) HepG2 cells were harvested and resuspended in PBS. A total of 5 × 10^6 cells were subcutaneously injected into the right flank. Tumor volume was calculated using the following formula: V = (L × W^2)/2, where L is the length and W is the width of the tumor nodules measured with vernier calipers. Once the volume of the tumors reached 75–100 mm^3, the mice were randomly divided into three groups (n = 5). The mice were treated every other day for two weeks with tail vein injections of either vehicle (5% ethanol and 2.5% polyethylene glycol in saline), compound 7, or ISJ (5 mg/kg in the vehicle). Body weights were measured before each drug injection. After the 15th day, the mice were euthanized, and the tumors were isolated, weighed and photographed.

The subject of data set [1] is phosphorylated c-Raf, MEK1/2 and ERK1/2. Put plainly: Western blot of MAPK phosphorylation, HepG2. The data set is classed as cell-based, human. The settings on record: HepG2, 24 h. As for the experimental part:
(§2) Additional PKC targeting effects involved in the early response of major MAPK phosphorylation and the late response of HCC cell invasion and apoptosis were investigated. After 24 h of treatment with ISJ at the indicated concentrations, the total protein lysates from HCC cells were analyzed (Fig. 6). ISJ inhibited the phosphorylated, activated forms of c-Raf, MEK1/2 and ERK1/2 in the MAPK signaling pathway in both HepG2 and QGY-7703 cells (Fig. 6a). […] In contrast, E-cadherin expression was elevated, specifically at the highest concentration of ISJ (20 μM) (Fig. 6b). In addition, we analyzed several representative apoptotic proteins, including cleaved PARP (c-PARP), p53 and p21. […] These findings support our hypothesis that ISJ restrains HCC cell metastasis and induces HCC cell apoptosis by specifically inhibiting PKC.
(§3) The total membrane and cytosolic proteins were extracted using a Membrane and Cytosol Protein Extraction Kit (Beyotime). Extracted proteins from cells or animal tissues were separated by SDS-PAGE and transferred to polyvinylidene difluoride (PVDF) membranes (Bio-Rad). The PVDF membranes were blocked with 5% nonfat milk and incubated with primary antibodies overnight, followed by incubation with a donkey anti-rabbit or anti-mouse secondary antibody (IRDye 800, LI-COR, Biosciences). […] The intensity was quantitative with Quantity One software (Bio-Rad). […]

The subject of a further data set is SMMC-7721 cells. Nature of the data set: Cell proliferation assay (CCK-8), SMMC-7721. In kind it is cell-based, human. The note with it: mean ± SD, at least three independent experiments. On the procedure:
(§4) The human HCC cell lines QGY-7703, SMMC-7721 and HepG2 and the liver cell line QSG-7701 were supplied by the Cell Resource Center, Institute of Life Sciences, Chinese Academy of Medical Science. QGY-7703, SMMC-7721 and QSG-7701 cells were cultured in 1640 medium (Gibco), and HepG2 cells were cultured in DMEM medium (Gibco) at 37 °C in moist air supplemented with 5% CO2. All media were supplemented with 10% fetal bovine serum (FBS) and 100 Units/mL of penicillin/streptomycin.
(§5) The cell viability assay was performed as previously reported using a Cell Counting Kit-8 (CCK-8; Dojindo, Kumamoto, Japan)[33][34]. The relative cell viability was presented as % inhibition and calculated using the following formula: […]

The next data set concerns the target T1, PKCα (Homo sapiens, UniProt P17252).
T1 construct: Endogenous cPKC (PKCα) and nPKC (PKCδ, PKCε and PKCμ) in HepG2 lysates were pulled down; endogenous in cells; host or cells: HepG2
Put plainly: Cell-based pull-down assay, PKCα. The settings on record: HepG2 lysates. In kind it is binding. As for the experimental part:
To identify whether ISJ and compound 7 target PKC in cells, we performed pull-down experiments using ISJ- and compound 7-coupled Sepharose beads with HepG2 cell lysates. Endogenous cPKC (PKCα) and nPKC (PKCδ, PKCε and PKCμ) in HepG2 lysates were pulled down by ISJ-coupled CNBr-activated Sepharose 4B beads (Fig. 5a).
The control beads were prepared by incubating the beads with DMSO. Proteins (500 μg) from lysed HepG2 cells were mixed with either the control beads, compound 7-coupled beads, or ISJ-coupled beads (100 μL) in reaction buffer [50 mM Tris (pH 7.5), 5 mM EDTA, 150 mM NaCl, 1 mM DTT, 0.01% NP-40, 2 μg/mL BSA, 1 mM PMSF, 1% protease inhibitor mixture]. After incubation with gentle rocking overnight at 4 °C, the beads were washed 5 times with washing buffer [50 mM Tris (pH 7.5), 5 mM EDTA, 150 mM NaCl, 1 mM DTT, 0.01% NP-40, 1 mM PMSF], and binding was visualized by western blotting.

The next data set deals with HeLa-C3 cells. The arrangement: method as in PMID 18614188. The settings on record: cited from earlier work.
In data set [2] the test system is MMP-9, FGFR-1, E-cadherin. Put plainly: Western blot of invasion-related proteins, HepG2. In kind it is cell-based, human. The settings on record: HepG2, 24 h. As for the experimental part:
as §2, §3
For orientation: A western blot detects proteins with antibodies after separation by electrophoresis.

A further data set deals with QGY-7703 cells. Nature of the data set: Cell proliferation assay (CCK-8), QGY-7703. The data set is classed as cell-based, human. As for the experimental part: as §4, §5
Data set [3] concerns methicillin-resistant Staphylococcus aureus (MRSA). The arrangement: method as in PMID 22942699. The settings on record: cited from earlier work.
The subject of data set [4] is phosphorylated c-Raf, MEK1/2 and ERK1/2. Put plainly: Western blot of MAPK phosphorylation, QGY-7703. In kind it is cell-based, human. The note with it: QGY-7703, 24 h. On the procedure:
as §2, §3

A short description of data set [5]: Body weight in xenograft study. In kind it is in vivo, BALB/c-nu nude mice. The settings on record: 5 mg/kg, tail vein, two weeks. On the procedure:
as §1

Consider Isojacareubin [ISJ], for which the “reduction of tumor weight compared to controls” value in the data set with HepG2 xenografts was determined as 74.1%. In addition, the “phosphorylated, activated forms of c-Raf, MEK1/2 and ERK1/2” value in [1] and in data set [4] was “inhibited” each time. The IC50 in the data set on SMMC-7721 cells came out at 1.63 ± 0.05 µM; with QGY-7703 cells (mean ± SD, at least three independent experiments) it was 4.65 ± 0.32 µM. Also, the “pull-down of endogenous PKCα by compound-coupled Sepharose 4B beads” value on PKCα is “pulled down”. Also, the “growth of HeLa-C3 cells” value with HeLa-C3 cells is listed as “inhibited the growth”. Moreover, the “expression levels of MMP-9 and FGFR-1” value in data set [2] is given as “markedly reduced”. For the same substance, the E-cadherin expression entry in data set [2] (specifically at 20 μM) is listed as “elevated”. The “Inhibitory Ratio (%) QGY-7703” value with QGY-7703 cells (50 μM) is given as 83.69%. For the same substance, the “antibacterial activity against MRSA” value in data set [3] was “potent antibacterial compound”. Besides, the “change in body weight compared to vehicle-treated controls” value in data set [5] was “no significant change”.
